Experimental data as given in US8039430B2 (University of Wollongong, priority 2005, dated 2011).
Values after ≈ are worked out from the molar mass of the structure shown. Where two headings read alike, the source gives them in different places.

Legend:
[1] = tested on: Staphylococcus aureus (ATCC 6538P); assay: Antibacterial assay (MIC), Staphylococcus aureus ATCC 6538P, Luria Broth, Example 1; assay type: cell-based; conditions: Staphylococcus aureus, ATCC6538P, read-out: Sa (minimum inhibitory concentration)
Method: (§1) Antibacterial Assay Method for Staphylococcus aureus (ATCC 6538P) and Enterococcus faecium
Staphylococcus aureus (ATCC 6538P)
(§2) Compounds are accurately weighed out (between approx. 1-2 mg) and dissolved in either 10% methanol/water (v/v) or 100% DMSO to a final stock concentration of 5 mg/ml.
(§3) Compounds are then diluted 1/10 in H2O to a test conc of 500 ug/ml ready for immediate use, or storage at −20° C.
(§4) Grow up an o/n starter culture of Staphylococcus aureus and each VRE strain by diluting previous culture (stored at 4° C.) 1/1000 into −50 mls Luria Broth (LB) for S. aureus or Enterococossel Broth (EB) for the VRE strains.
(§5) Incubate o/n at 37° C.+shaking. • A glycerol stock (0.6 mls bacterial culture, 0.3 mls glycerol) of each strain is kept at −80° C. if needed. Assay Set Up:
(§6) In a 96well round bottom plate add 50 ul LB/well for the S. aureus plate and add 50 ul EB/well for the VRE plates.
(§7) Add 50 ul of compound dilution (500 ug/ml test conc) to each of three top row wells (ie: tested in triplicate) and dilute 1 in 2 from the top row to the bottom row.
(§8) After the compound dilution, add to each well 50 ul of a 1/1000 dilution of the appropriate overnight bacterial culture, either S. aureus or the different VRE strains.
(§9) Plates are incubated at 37° C. on a slowly rotating plate incubator. • test concentrations are (in ug/ml) 125, 62.5, 31.25, 15.6, 7.8, 3.9, 1.9, 0.98 • final DMSO concentration in the first row of wells of the assay is 2.5% • Vancomycin is included in the assay (in triplicate) at a starting test concentration of 5 ug/ml for S. aureus and 125 ug/ml for the VRE strains Reading Results of Assay:
(§10) After incubation for 24 hrs the plates are removed and read. Inhibition of bacterial growth is indicated by lack of bacterial pellet or a clear well. In the VRE plates bacterial growth is indicated by black coloured media (EB) as well as a bacterial pellet.
(§11) Untreated control wells are included in the assay to check they all contain bacterial pellets. Uninoculated untreated control wells are included to check they all contain clear medium.
(§12) The plates are analysed for MIC and the results tabulated.

[2] = tested on: #243 E. faecium van B ST17; assay: Antibacterial assay (MIC), VRE strain #243, Enterococossel Broth, Example 1; assay type: cell-based, Enterococcus faecium; conditions: Enterococcus faecium, read-out: 243 (minimum inhibitory concentration)
Method: as §1
(§13) VRE strains: #243 E. faecium van B ST17 #449 E. faecium van B ST17
as §2, §3, §4, §5, §6, §7, §8, §9, §10, §11, §12

[3] = tested on: #449 E. faecium van B ST17; assay: Antibacterial assay (MIC), VRE strain #449, Enterococossel Broth, Example 1; assay type: cell-based, Enterococcus faecium; conditions: Enterococcus faecium, read-out: 449 (minimum inhibitory concentration)
Method: as §1, §13, §2, §3, §4, §5, §6, §7, §8, §9, §10, §11, §12

[4] = tested on: #820 E. faecium van A ST17; assay: Antibacterial assay (MIC), VRE strain #820, Enterococossel Broth, Example 1; assay type: cell-based, Enterococcus faecium; conditions: Enterococcus faecium, read-out: 820 (minimum inhibitory concentration)
Method: as §1
(§14) #820 E. faecium van A ST17 #987 E. faecium van B ST39
as §2, §3, §4, §5, §6, §7, §8, §9, §10, §11, §12

[5] = tested on: #987 E. faecium van B ST39; assay: Antibacterial assay (MIC), VRE strain #987, Enterococossel Broth, Example 1; assay type: cell-based, Enterococcus faecium; conditions: Enterococcus faecium; Example 1 compounds; VRE #987 E. faecium van B; 24 hrs, 37° C.; read-out: 987 (minimum inhibitory concentration)
Method: as §1, §14, §2, §3, §4, §5, §6, §7, §8, §9, §10, §11, §12

[6] = Example 1 compounds, S. aureus ATCC 6538P, 24 hrs, 37° C., range if at least two of three values fell within it
[7] = Example 1 compounds, VRE #243 E. faecium van B, 24 hrs, 37° C.
[8] = Example 1 compounds, VRE #449 E. faecium van B, 24 hrs, 37° C.
[9] = Example 1 compounds, VRE #820 E. faecium van A, 24 hrs, 37° C.

Structure (SMILES) | MIC [1, 6] [µg/mL] | MIC [2, 7] [µg/mL] | MIC [3, 8] [µg/mL] | MIC [4, 9] [µg/mL] | MIC [5] [µg/mL] | MIC ([1]; 24 h) [µg/mL] | MIC ([3]; VRE, 24 h) [µg/mL] | MIC ([4]; VRE, 24 h) [µg/mL] | MIC ([2]; VRE, 24 h) [µg/mL]
CC(C)CCOc1ccc2ccccc2c1-c1c(OCC(=O)N[C@H](CCCCN)C(=O)N[C@H](CCCNC(=N)N)C(=O)N[C@@H](CC(C)C)c2ncc(Cc3ccccc3)o2)ccc2ccccc12.Cl.Cl (atropisomer, axis not shown) [Compound 18] | 0.99 to 15.6 | 15.7 to 62.5 | 15.7 to 62.5 | 15.7 to 62.5 | 15.7 to 62.5 |  |  |  | 
CC(C)CCOc1ccc2ccccc2c1-c1c(OCC(=O)N[C@H](CCCCN)C(=O)N[C@H](CCCNC(=N)N)C(=O)N[C@@H](Cc2ccccc2)C(=O)OCc2ccccc2)ccc2ccccc12.Cl.Cl (atropisomer, axis not shown) [Compound 19] | 0.99 to 15.6 | 15.7 to 62.5 | 15.7 to 62.5 | 15.7 to 62.5 | 15.7 to 62.5 |  |  |  | 
CC(C)CCOc1ccc2ccccc2c1-c1c(OCC(=O)N[C@H](CCCCN)C(=O)N[C@H](CCCNC(=N)N)C(=O)NC2(C(=O)OCc3ccccc3)CCCC2)ccc2ccccc12.Cl.Cl (atropisomer, axis not shown) [Compound 20] | 0.99 to 15.6 | 15.7 to 62.5 | 15.7 to 62.5 | 15.7 to 62.5 | 15.7 to 62.5 |  |  |  | 
C=CC[C@H](NC(=O)[C@@H](CCCNC(=N)N)NC(=O)[C@@H](CCCCN)NC(=O)COc1ccc2ccccc2c1-c1c(OCC2CCCCC2)ccc2ccccc12)C(=O)OCc1ccccc1.Cl.Cl (atropisomer, axis not shown) [Compound 23] | 0.99 to 15.6 | 15.7 to 62.5 | 15.7 to 62.5 | 15.7 to 62.5 | 15.7 to 62.5 |  |  |  | 
CC(C)C[C@H](NC(=O)[C@@H](CCCNC(=N)N)NC(=O)[C@@H](CCCCN)NC(=O)COc1ccc2ccccc2c1-c1c(OCCc2ccccc2)ccc2ccccc12)C(=O)OCc1ccccc1.Cl.Cl (atropisomer, axis not shown) [Compound 28] | 0.99 to 15.6 | 15.7 to 62.5 | 15.7 to 62.5 | 15.7 to 62.5 | 15.7 to 62.5 |  |  |  | 
COC(=O)[C@@H](CCCNC(=N)N)NC(=O)CCCOc1ccc2ccccc2c1-c1c(OCCCC(=O)N[C@H](CCCNC(=N)N)C(=O)OC)ccc2ccccc12 [Compound 33] |  |  |  |  |  | 0.99 to 15.6 (≈ 1.24 to 19.5 µM) | > 62.6 | > 62.6 | 
N=C(N)NCCC[C@@H](NC(=O)CCCOc1ccc2ccccc2c1-c1c(OCCCC(=O)N[C@H](CCCNC(=N)N)C(=O)OCc2ccccc2)ccc2ccccc12)C(=O)OCc1ccccc1 [Compound 38] |  |  |  |  |  | 0.99 to 15.6 (≈ 1.04 to 16.4 µM) |  |  | 15.7 to 62.5 (≈ 16.5 to 65.7 µM)

Continued, in another order:

MIC [1, 6] [µg/mL] | MIC [2, 7] [µg/mL] | MIC [3, 8] [µg/mL] | MIC [4, 9] [µg/mL] | MIC [5] [µg/mL] | Structure (SMILES) | MIC ([1]; 24 h) [µg/mL] | MIC ([3]; VRE, 24 h) [µg/mL] | MIC ([4]; VRE, 24 h) [µg/mL] | MIC ([2]; VRE, 24 h) [µg/mL]
0.99 to 15.6 | 15.7 to 62.5 | 15.7 to 62.5 | 15.7 to 62.5 | 15.7 to 62.5 | C=CCOc1ccc2ccccc2c1-c1c(OCC(=O)N[C@H](CCCCN)C(=O)N[C@H](CCCNC(=N)N)C(=O)N[C@@H](CC(C)C)C(=O)OCc2ccccc2)ccc2ccccc12.Cl.Cl (atropisomer, axis not shown) [Compound 22] |  |  |  | 
0.99 to 15.6 | 15.7 to 62.5 | 15.7 to 62.5 | 15.7 to 62.5 | 15.7 to 62.5 | C=CC[C@H](NC(=O)[C@@H](CCCNC(=N)N)NC(=O)[C@@H](CCCCN)NC(=O)COc1ccc2ccccc2c1-c1c(OCC2CCC2)ccc2ccccc12)C(=O)OCc1ccccc1.Cl.Cl (atropisomer, axis not shown) [Compound 24] |  |  |  | 
0.99 to 15.6 | 15.7 to 62.5 | 15.7 to 62.5 | 15.7 to 62.5 | 15.7 to 62.5 | C=CC[C@H](NC(=O)[C@@H](CCCNC(=N)N)NC(=O)[C@@H](CCCCN)NC(=O)COc1ccc2ccccc2c1-c1c(OCC(C)C)ccc2ccccc12)C(=O)OCc1ccccc1.Cl.Cl (atropisomer, axis not shown) [Compound 25] |  |  |  | 
0.99 to 15.6 | 15.7 to 62.5 | 15.7 to 62.5 | 15.7 to 62.5 | 15.7 to 62.5 | C=CC[C@H](NC(=O)[C@@H](CCCNC(=N)N)NC(=O)[C@@H](CCCCN)NC(=O)COc1ccc2ccccc2c1-c1c(OCCCCC)ccc2ccccc12)C(=O)OCc1ccccc1.Cl.Cl (atropisomer, axis not shown) [Compound 26] |  |  |  | 
